Source: patent US6348445B1, “Biologically active peptides with reduced toxicity in animals and a method for preparing same” (priority 1992, dated 2002)
In brackets after ≈: the same amount, converted by molar mass. Where two headings read alike, the source gives them in different places. *1 amine or outer side, *2 acyl side, *3 side chain or, on linkers, in order; H or OH if unused. Where a SMILES comes first, the peptide text is derived from it. [ ]: non-standard residue; d: D form. The star is where a group is joined. X1 = O=C([C@H](CCCCNCS(=O)(=O)O)N[*:1])[*:2]; Octanoyl = CCCCCCCC(=O)*; Orn = NCCC[C@H](N)C(=O)O

How the values were obtained:
[1] = system: P. gingivalis
[2] = system: P. aeruginosa strain ATCC 27853; format: cell-based
Method in brief: (§1)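 Peptides serially diluted 1:2 to final 0.25–256 μg/ml in Mueller Hinton broth, inoculated with 1-5×10^5 CFUs/ml from mid-log culture. Incubated 16-20 hours at 37° C. MIC = lowest peptide concentration giving a clear well.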

[3] = system: E. coli ATCC strain 25922; test: Minimal Inhibitory Concentration, microtiter broth dilution; format: cell-based
Method in brief: as §1

[4] = system: S. aureus ATCC 29213; format: cell-based
[5] = system: C. albicans ATCC 90028; format: cell-based
Experimental: (§2) The procedure for the anti-bacterial assay is based upon the guidelines of the National Committee for Clinical Laboratory Standards, Document M7-T2, Volume 8, No. 8, 1988, which document is entirely incorporated herein by reference.
(§3) Stock solutions of peptides, with and without the appropriate substitutions, were prepared at a concentration of 512 μg/ml in sterile deionized distilled water and stored at −70° C.
(§4) The stock peptide solution was diluted in serial dilutions (1:2) down the wells of a microtiter plate so that the final concentrations of peptides in the wells were 0.25, 0.50, 1, 2, 4, 8, 16, 32, 64, 128 and 256 μg/ml. 1-5×10^5 CFUs/ml of either S. aureus ATCC 25923, E. coli ATCC 25922, P. aeruginosa ATCC 27853, or C. albicans, were added to the wells in full strength Mueller Hinton broth (BBL 11443) from a mid-log culture. The inoculum was standardized spectrophotometrically at 600 nm and was verified by colony counts. The plates were incubated for 16-20 hours at 37° C., and the minimal inhibitory concentration (MIC) for each peptide was determined. Minimal inhibitory concentration is defined as the lowest concentration of peptide which produces a clear well in the microtiter plate. The minimal inhibitory concentration of each of the peptides with and/or without the appropriate substitutions is given in Table I below.
(§5) The in vitro anti-microbial activities of the methane sulfonate derivatives were determined according to the methods described in Examples 1 and 2. The activities against ATCC strains of S. aureus, E. coli, P. aeruginosa, and C. albicans, and the hemolysis of red blood cells were compared to the parent compound (Table IV). The activities for Compound 843 (Oct-SEQ ID NO:143) methane sulfonate against clinical strains of P. aeruginosa isolated from cystic fibrosis patients were compared to the parent compound (Table V). The activity for Compound 469 (Oct-SEQ ID NO:27) methane sulfonate against P. gingivalis was compared to the parent compound (Table VI).

[6] = system: S. mutans; test: anaerobic anti-microbial susceptibility test (MIC); format: cell-based; set-up: unit not given here; conditions: 24-48 hours
[7] = system: C. albicans; format: cell-based
Method in brief: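 Peptides serially diluted 1:2 to final 0.25–256 μg/ml; inoculum 1-5×10^5 CFU/ml from mid-log culture in full-strength Mueller Hinton broth. Incubated 16-20 h at 37° C. MIC taken as lowest peptide concentration giving a clear well.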

[8] = system: A. viscosus; test: anaerobic anti-microbial susceptibility test (MIC); format: cell-based; conditions: 24-48 hours
[9] = system: red blood cells; test: hemolysis of red blood cells; format: cell-based
Experimental: as §5

[10] = system: clinical strains of P. aeruginosa isolated from cystic fibrosis patients; test: MIC against clinical isolates of P. aeruginosa; format: cell-based, Pseudomonas aeruginosa; conditions: clinical isolate
Experimental: as §2, §3, §4, §5

[11] = system: lipopolysaccharide from E. coli serotype 0111:B4; test: survival of mice after lipopolysaccharide and galactosamine; format: in vivo
Experimental: Oct-(SEQ ID NO: 143)—NH2 was injected intravenously into male C57BL/6J mice (average body weight 20.1 g) approximately two minutes prior to intraperitoneal injection of a solution of lipopolysaccharide (either 0.1 μg or 0.5 μg/mouse) from E. coli serotype 0111:B4 and galactosamine (8 mg/mouse). […] When these doses were administered prior to the administration of 0.1 μg lipopolysaccharide/mouse, the results were 40%, 90%, 100%, 100%, and 100% survival at five days post-lipopolysaccharide administration, respectively.

[12] = system: E. coli strain 21915-1; test: survival of mice inoculated intraperitoneally with live E. coli; format: in vivo; conditions: i.v. at 1 and 5 hours post-inoculation, 10 mice
Experimental: CD-1 male mice (average body weight, 22.8g) were inoculated with live E. coli strain 21915-1 (2.3×10^5 CFU mouse) by injection intraperitoneally. Oct-(SEQ ID NO: 143)—NH2 then was injected intravenously via the tail vein at 1 and 5 hours post-inoculation. Control mice were inoculated and treated with 0.9% saline. Each different treatment group had 10 mice per group. All control mice died.

[13] = system: S.aureus strain ATCC 25923; test: Minimal Inhibitory Concentration, microtiter broth dilution; format: cell-based; conditions: Mueller Hinton broth, 16-20 hours at 37° C.
Source text: Table I, which follows, indicates the Minimal Inhibitory Concentration (MIC) in […] of various peptides against S.aureus strain ATCC 25923(S), P. aeruginosa strain ATCC 27853(P), E. coli ATCC strain 25922(E), and C. 4albicans (CA). […] The peptides are unsubstituted at the N-terminal; substituted with an acetyl group at the N-terminal, as indicated by Ac-; substituted with an octanoyl group at the N-terminal, as indicated by Oct-; substituted with spinogosine, as indicated by Sph-; substituted with a succinyl group, as indicated by Suc-; substituted with a hexanoyl group, as indicated by Hex-; substituted with a heptanoyl group, as indicated by Hep-; substituted with a valeryl group, as indicated by Val-; substituted with a myristryl group, as indicated by Myr-; or substituted with an ibuprofyl group, as indicated by Ibu-;
as §2, §3, §4

[14] = maximal tolerated dose, single intravenous administration of Compound 1324; format: in vivo, mice; conditions: mouse, in vivo; single intravenous bolus, CD-1 mice; read-out: MTD i.v. (maximum tolerated dose, non-lethal)
Experimental: Mice received single intravenous administrations of Compound 1324, the methane sulfonate analogue of Compound 843, and were monitored for survival for at least 4 days. There were no deaths at a dose of less than or equal to 180 mg/kg.
To determine the maximal tolerated dose (MTD) and estimate the lethal dose 50% (LD50) of Compound 1324 sodium when administered intravenously in a single-bolus in mice.
Animals: On arrival and study initiation, three groups Thirty-seven male CD-1 mice (Charles River Lab)had average body weights of 39, 28 and 28 gm, respectively.
Solution Prep: A 120 mg/ml of active Compound 1324 (active moiety corrected for) was made in saline. All concentrations from 5 mg/ml to 80 mg/ml were dilutions of the 120 mg/ml solution with saline. The highest concentration used in the intravenous administration was 20 mg/ml.
Mice were randomly assigned to one of ten groups (4 mice per group, except the highest dose group which only had one mouse). Mice were administered intravenously 10 ml/kg of either 0 (saline), 5, 6, 7, 8, 14, 16, 18, or 20 mg/ml solution for doses of […]. One mouse received 14.1 ml/kg of a 20 mg/ml solution for a dose of 282 mg/kg. Mice were monitored for survival for at least four days post-administration.

CCCCCCCC(=O)N[C@@H](CCCCNCS(=O)(=O)O)C(=O)N[C@H](C(=O)N[C@@H](C)C(=O)NCC(=O)N[C@@H](CCCCNCS(=O)(=O)O)C(=O)N[C@H](C(=O)N[C@@H](C)C(=O)N[C@@H](CCCCNCS(=O)(=O)O)C(=O)N[C@H](C(=O)N[C@@H](C)C(=O)NCC(=O)N[C@@H](CCCCNCS(=O)(=O)O)C(=O)N[C@H](C(=O)N[C@@H](C)C(=O)N[C@@H](CCCCNCS(=O)(=O)O)C(=O)N[C@H](C(=O)N[C@@H](C)C(=O)NCC(=O)N[C@@H](CCCCNCS(=O)(=O)O)C(=O)N[C@H](C(=O)N[C@@H](C)C(N)=O)[C@@H](C)CC)[C@@H](C)CC)[C@@H](C)CC)[C@@H](C)CC)[C@@H](C)CC)[C@@H](C)CC [Compound 1662] (Octanoyl-[X1]IAG[X1]IA[X1]IAG[X1]IA[X1]IAG[X1]IA-NH2)
MIC P. gingivalis ATTC 33277 [1]: 8 mg/L (≈ 2.91 µM)
MIC P. aeruginosa ATCC 27853 ([2]; ATCC 27853): 32 mg/L (≈ 11.6 µM)
MIC E. coli ATCC 25922 ([3]; ATCC strain 25922): 8 mg/L (≈ 2.91 µM)
MIC S. aureus ATCC 29213 ([4]; ATCC 29213): 4 mg/L (≈ 1.45 µM)
MIC C. albicans ATCC 90028 ([5]; ATCC 90028): 64 mg/L (≈ 23.2 µM)

CCCCCCCC(=O)N[C@@H](CCCCN)C(=O)N[C@H](C(=O)N[C@@H](C)C(=O)NCC(=O)N[C@@H](CCCCN)C(=O)N[C@H](C(=O)N[C@@H](C)C(=O)N[C@@H](CCCCN)C(=O)N[C@H](C(=O)N[C@@H](C)C(=O)NCC(=O)N[C@@H](CCCCN)C(=O)N[C@H](C(=O)N[C@@H](C)C(=O)N[C@@H](CCCCN)C(=O)N[C@H](C(=O)N[C@@H](C)C(=O)NCC(=O)N[C@@H](CCCCN)C(=O)N[C@H](C(=O)N[C@@H](C)C(N)=O)[C@@H](C)CC)[C@@H](C)CC)[C@@H](C)CC)[C@@H](C)CC)[C@@H](C)CC)[C@@H](C)CC [Oct-(SEQ ID NO: 27)-NH2, (Oct-KIAGKIA)3-NH2)] (Octanoyl-KIAGKIAKIAGKIAKIAGKIA-NH2)
MIC P. gingivalis ATTC 33277 [1]: 4 mg/L (≈ 1.83 µM)
MIC P. gingivalis (strain) 9-14K-1 ([1]; anaerobic, 24-48 hours): 4 μl/ml
MIC P. gingivalis (strain) 381 ([1]; anaerobic, 24-48 hours): 16 μl/ml
MIC P. gingivalis (strain) 450 ([1]; anaerobic, 24-48 hours): 16 μl/ml
MIC P. gingivalis (strain) A7A1-28 ([1]; anaerobic, 24-48 hours): 4 μl/ml
MIC P. gingivalis (strain) FAY-19M-1 ([1]; anaerobic, 24-48 hours): 4 μl/ml
MIC P. aeruginosa ATCC 27853 ([2]; ATCC 27853): 4 to 8 mg/L
Minimal Inhibitory Concentration P ([2]; ATCC 27853): 4 µg/mL
MIC S. mutans [6]: 16
MIC E. coli ATCC 25922 ([3]; ATCC strain 25922): 4 mg/L (≈ 1.83 µM)
Minimal Inhibitory Concentration E ([3]; ATCC strain 25922): 2 µg/mL
Minimal Inhibitory Concentration CA [7]: 16 µg/mL
MIC S. aureus ATCC 29213 ([4]; ATCC 29213): 2 mg/L (≈ 0.914 µM)
MIC A. viscos [8]: 16 μl/ml
MIC C. albicans ATCC 90028 ([5]; ATCC 90028): 64 mg/L (≈ 29.2 µM)
% Hemolysis (500 μg/ml) [9]: 100%

CCCCCCCC(=O)N[C@@H](CCCN)C(=O)N[C@@H](CCCN)C(=O)N[C@@H](CC(C)C)C(=O)N[C@@H](CC(C)C)C(=O)N[C@@H](CCCN)C(=O)N[C@@H](CCCN)C(=O)N[C@@H](CC(C)C)C(=O)N[C@@H](CCCN)C(=O)N[C@@H](CCCN)C(=O)N[C@@H](CC(C)C)C(N)=O [Oct-(SEQ ID NO: 143)-NH2] (Octanoyl-[Orn][Orn]LL[Orn][Orn]L[Orn][Orn]L-NH2)
Minimal Inhibitory Concentration P ([2]; P. aeruginosa strain ATCC 27853, Table I): 2 µg/mL
MIC P. aeruginosa ATCC 27853 ([2]; Table IV): 2 mg/L (≈ 1.56 µM)
MIC Pseudomonas aeruginosa ATCC 27853 ([2]; Table V): 4 mg/L (≈ 3.12 µM)
MIC Pseudomonas aeruginosa LS-31 [10]: 16 mg/L (≈ 12.5 µM)
MIC Pseudomonas aeruginosa LS-40 [10]: 4 mg/L (≈ 3.12 µM)
MIC Pseudomonas aeruginosa LS-43 [10]: 2 mg/L (≈ 1.56 µM)
Minimal Inhibitory Concentration E ([3]; E. coli ATCC strain 25922, Table I): 16 µg/mL
MIC E. coli ATCC 25922 ([3]; Table IV): 4 mg/L (≈ 3.12 µM)
survival at five days post-lipopolysaccharide administration ([11]; 5 mg/kg i.v. (by order of the list), 0.1 μg lipopolysaccharide/mouse): 90%
survival at five days post-lipopolysaccharide administration ([11]; 5 mg/kg i.v., 0.5 μg lipopolysaccharide/mouse): 0%
survival at five days post-lipopolysaccharide administration ([11]; 7.5 mg/kg i.v. (by order of the list), 0.1 μg lipopolysaccharide/mouse): 100%
survival at five days post-lipopolysaccharide administration ([11]; 7.5 mg/kg i.v., 0.5 μg lipopolysaccharide/mouse): 30%
survival at five days post-lipopolysaccharide administration ([11]; 10 mg/kg i.v. (by order of the list), 0.1 μg lipopolysaccharide/mouse): 100%
survival at five days post-lipopolysaccharide administration ([11]; 10 mg/kg i.v., 0.5 μg lipopolysaccharide/mouse): 0%
survival at five days post-lipopolysaccharide administration ([11]; 12.5 mg/kg i.v. (by order of the list), 0.1 μg lipopolysaccharide/mouse): 100%
survival at five days post-lipopolysaccharide administration ([11]; 12.5 mg/kg i.v., 0.5 μg lipopolysaccharide/mouse): 50%
survival at five days post-lipopolysaccharide administration ([11]; 15 mg/kg i.v., 0.5 μg lipopolysaccharide/mouse): 60%
Minimal Inhibitory Concentration CA ([7]; C. albicans, Table I): 16 µg/mL
MIC S. aureus ATCC 29213 ([4]; Table IV): 16 mg/L (≈ 12.5 µM)
survival at six days post-inoculation ([12]; 1 mg/kg in toto): 20%
survival at six days post-inoculation ([12]; 5 mg/kg in toto): 40%
survival at six days post-inoculation ([12]; 10 mg/kg in toto): 90%
survival at six days post-inoculation ([12]; 20 mg/kg in toto): 90%
Minimal Inhibitory Concentration S [13]: 16 µg/mL
MTD [14]: 20 mg/kg
MIC C. albicans ATCC 90028 ([5]; Table IV): 64 mg/L (≈ 50 µM)
% Hemolysis (500 μg/ml) [9]: 25%
